Test results taken from publication PMC12177571, “Glycosidase-activated prodrugs of a cytotoxic iron chelator for targeted cancer therapy” (RSC Medicinal Chemistry, 2025).

Tests used:
[1] = system: A549 cells; test: MTT cell viability assay, A549 cells; type: cell-based; conditions: Homo sapiens, 72 h incubation, mean and SD of three independent experiments, read-out: IC50 against A549
Method: (§1) Next, the cytotoxicity of the prodrugs was assessed in the human lung cancer (A549) and human ovarian cancer (OvCar-3) cell lines: overexpressing β-glucosidase, and, overexpressing both β-glucosidase and β-galactosidase, respectively.[40,41] For this, a standard MTT assay was employed to generate the proliferation profiles (cf. ESI ^† Fig. S1–S5) and allowed us to calculate the IC50 values for each compound. GM5756 fibroblast cells were included as non-cancerous control.
(§2) Cell culture. Ovcar-3 cells were maintained in RPMI-1640 medium (Invitrogen), A549 cells were maintained in high glucose (4.5 g/L) Dulbecco’s Modified Eagle’s medium (Invitrogen. Alle employed culture media were supplemented with 10% fetal bovine serum (Gibco), 2% penicillin/streptomycin (Sigma Aldrich), 1%GlutaMAX™-I (100x, Gibco), and 1% sodium pyruvate (100 mM, Gibco).
(§3) Cells were kept under a humidified atmosphere of 10% CO2 and 90% air at 37°C. Cells were split when they reached 90% confluency. All employed cell lines were sourced from the German Collection of Microorganisms and Cell Cultures (Leibnitz Institute, DSMZ).
(§4) Cell viability studies and MTT assays. Cells were harvested and plated on a 96-well plate in 100 µL growth medium at a density of 1500 cells per well. The cells were left to grow for 24 h at 37°C under a humidified atmosphere with 10% CO2. The next day, 100 µL of growth medium containing appropriate concentrations of the investigated compound were added to each well. As a control, the first row of wells was treated with 100 µL medium containing only the vehicle (1% DMSO); all wells contained a final concentration of 0.5% DMSO for the duration of the treatment. After incubation with the compound for 72 h, 50 µL of MTT solution (2.5 mg/mL 3-(4,5-dimethylthiazol-2-yl)-2,5-diphenyltetrazolium bromide dye in PBS buffer) was added to each well. After an additional incubation for 2 h, the supernatant was aspired off and 200 µL of DMSO was added to each well to solubilize the precipitated formazan dye. The produced formazan dye was quantified by measuring the optical density of the solution at 550 nm with a Tecan Infinite M Nano+ plate reader. A baseline correction was performed by subtracting a reference absorbance at 620 nm for each well. From the mean of the corrected absorbances for each set of equivalent wells, a dose-response curve was produced, which was then normalized to the wells containing untreated cells to allow for plate-to-plate comparison. The resulting dose-response curves were subjected to non-linear regression analysis performed in Microsoft Excel (version 16.64) to determine IC50 via the Hill-Langmuir model. Data is shown as the mean of three replicate experiments and error bars represent the standard deviation at each datum point.

[2] = system: OvCar-3 cells; test: MTT cell viability assay, OvCar-3 cells; type: cell-based; conditions: Homo sapiens, 72 h incubation, mean and SD of three independent experiments, read-out: IC50 against OvCar-3
Method: as §1, §2, §3, §4

[3] = system: GM5756 fibroblast cells; test: MTT cell viability assay, GM5756 fibroblast cells (non-cancerous control); type: cell-based; conditions: 72 h incubation, mean and SD of three independent experiments, read-out: IC50 against GM5756
Method: as §1, §2, §3, §4

[4] = Fe(III) binding study by UV-vis spectroscopy; conditions: 30 μM compound, excess FeCl3 (50 μM), methanol
Method: With the prodrugs in hand, binding studies were carried out using UV-vis spectroscopy; this was done to confirm the Fe(III) binding ability of all new compounds. […] To evaluate whether 2a, 2b, 3a, and 3b were chelating Fe(III), each prodrug was similarly dissolved in a solution containing excess FeCl3.
Fig. 2 UV-vis absorption spectra for prodrugs 2a/b and 3a/b as well as 1 at a concentration of 30 μM with an excess of FeCl3 as Fe(III) source (50 μM) in methanol.
UV-vis spectra were recorded in methanol containing the indicated ligand or prodrug at a concentration of 30 µM and as appropriate Fe(III) at a concentration of 50 µM. A stock solution of FeCl3 in DMSO was used as source of Fe(III) and ligands were added from a […] stock solution in DMSO. All samples contained a final concentration of <0.2% DMSO.
Figure S7: UV-vis absorption spectra of 1, Fe(III), and 1 + Fe(III). The graph for 1 + Fe(III) (Numerically) was constructed by numerically adding the respective signals of Fe(III) and 1 to show what graph could be expected if the two species were in the same solution without interacting.
Figure S8: UV-vis absorption spectra of 2a, Fe(III), and 2a + Fe(III). The graph for 2a + Fe(III) (Numerically) was constructed by numerically adding the respective signals of Fe(III) and 2a to show what graph could be expected if the two species were in the same solution without interacting. […]

[5] = molecular target: T1, β-galactosidase (Escherichia coli, UniProt P00722); test: AIE fluorescence study of release of 1 with β-galactosidase; type: biochemical, e.coli; conditions: free chelator 1 as reference, 20 μM, enzyme not specified
T1 construct: purchased Roche; host or cells: E. coli overproducer
T1 sequence (P00722 2-1024): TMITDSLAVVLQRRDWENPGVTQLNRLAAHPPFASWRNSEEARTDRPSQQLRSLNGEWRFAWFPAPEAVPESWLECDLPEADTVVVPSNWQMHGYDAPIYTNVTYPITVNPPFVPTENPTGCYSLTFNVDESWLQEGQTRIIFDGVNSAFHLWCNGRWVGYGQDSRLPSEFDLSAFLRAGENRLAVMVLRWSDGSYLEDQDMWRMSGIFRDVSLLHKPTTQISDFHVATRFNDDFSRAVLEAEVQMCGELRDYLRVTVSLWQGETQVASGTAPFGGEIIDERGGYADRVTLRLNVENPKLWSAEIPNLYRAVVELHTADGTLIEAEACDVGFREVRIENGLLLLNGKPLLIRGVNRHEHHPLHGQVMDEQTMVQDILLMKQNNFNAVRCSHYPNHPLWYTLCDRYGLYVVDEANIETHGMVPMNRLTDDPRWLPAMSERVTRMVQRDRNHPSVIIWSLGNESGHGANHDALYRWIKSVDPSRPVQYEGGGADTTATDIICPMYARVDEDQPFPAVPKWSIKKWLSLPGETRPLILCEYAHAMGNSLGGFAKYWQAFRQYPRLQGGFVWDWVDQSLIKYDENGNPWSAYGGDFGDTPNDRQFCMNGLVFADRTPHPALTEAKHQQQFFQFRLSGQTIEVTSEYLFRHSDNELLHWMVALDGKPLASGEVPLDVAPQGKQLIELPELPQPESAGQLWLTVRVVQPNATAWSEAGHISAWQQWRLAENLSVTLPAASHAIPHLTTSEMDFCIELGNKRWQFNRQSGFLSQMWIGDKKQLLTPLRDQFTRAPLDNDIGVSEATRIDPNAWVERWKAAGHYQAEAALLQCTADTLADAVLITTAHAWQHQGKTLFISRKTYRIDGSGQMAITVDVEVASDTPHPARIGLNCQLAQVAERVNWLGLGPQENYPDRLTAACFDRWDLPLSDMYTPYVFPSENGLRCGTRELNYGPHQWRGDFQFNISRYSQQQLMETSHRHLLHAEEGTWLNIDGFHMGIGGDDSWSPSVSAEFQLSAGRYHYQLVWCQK
Method: The AIE fluorescence properties of 1 were used as a means of supporting the above conclusion. The emission of all glycosylated prodrugs is suppressed. Thus, solutions of each prodrug were prepared in water, and three enzyme units of β-galactosidase or β-glucosidase, as appropriate, were added to the prodrugs. Each mixture was then analysed by fluorescence spectroscopy after 24 h of incubation. […] This finding is consistent with a lack of enzymatic activation.
Fig. 4 Relative emission intensity at 480 nm (*for 3b at 420 nm) of evaluated compounds at 20 μM before and after incubation with 3 U of the appropriate enzyme. TEXT PRINTED IN THE PICTURE: 1: Relative Emission 480 nm: 100% (Before incubation); Relative Emission 480 nm: 100% (After 24 h incubation) | 2a: Relative Emission 480 nm: 0% (Before incubation); Relative Emission 480 nm: 0% (After 24 h incubation) | 2b: Relative Emission 480 nm: 0% (Before incubation); Relative Emission 480 nm: 1% (After 24 h incubation) | 3a: Relative Emission 480 nm: 1% (Before incubation); Relative Emission 480 nm: 33% (After 24 h incubation) | 3b*: Relative Emission 480 nm: 1% (Before incubation); Relative Emission 480 nm: 11% (After 24 h incubation) […]
Figure S25: Fluorescence spectra for excitation (blue) and emission (green) of 1 at a concentration of 20 μM in water.
Figure S26: Fluorescence spectra for excitation (blue) and emission (green) of 2a at a concentration of 20 μM in water before (left) and after (right) incubation with 3 units of b-galactosidase for 24 h. […]
Figure S28: Fluorescence spectra for excitation (blue) and emission (green) of 3a at a concentration of 20 μM in water before (left) and after (right) incubation with 3 units of β-galactosidase for 24 h. […]

Oc1ccccc1-c1nc(-c2ccccc2O)n(-c2ccccc2)n1 [compound 1, reference compound]
IC50 [1]: 3.1 ± 0.4 µM | IC50 [2]: 3.9 ± 1.6 µM | IC50 [3]: 2.7 ± 0.1 µM | Absorbance at 510 nm (Fe(III) chelation band) [4]: characteristic absorption band at 510 nm | Relative emission intensity at 480 nm ([5]; after 24 h incubation): 100% | Relative emission intensity at 480 nm ([5]; before incubation): 100%
